Measured values published in US5502036A, “Antiherpes pentapeptide derivatives having a substituted aspartic acid side chain” (priority 1989, dated 1996).
Read-outs that look alike come from different tables or passages of the source. Where a SMILES comes first, the peptide text is derived from it. [ ]: non-standard residue; d: D form. The star is where a group is joined. Gly(1-COOH-cBu) = N[C@H](C(=O)O)C1(C(=O)O)CCC1; Hydrocinnamoyl = O=C(CCc1ccccc1)*; Pentanoyl(4-Me) = CC(C)CCC(=O)*; O(2S-octyl) = CCCCCC[C@H](C)O*; NHPhenethyl = c1ccc(CCN*)cc1; Tle = CC(C)(C)[C@H](N)C(=O)O; NMeV = CN[C@H](C(=O)O)C(C)C; Pyrrolidide = C1CCN(*)C1; NHIsopentyl = CC(C)CCN*; Boc = CC(C)(C)OC(=O)*; X6 = CC(C)C[C@H](C)N*; X2 = CCCCCCCCCCCCO*; X4 = CCCCCCCCN(C)*

Target: T1, HSV-1 ribonucleotide reductase (partially purified) (Human herpesvirus 1, UniProt P08543)
T1 construct: obtained from quiescent BHK-21/C13 cells infected with strain F HSV-1 virus; endogenous in cells; host or cells: quiescent BHK-21/C13 cells infected with HSV-1 strain F; enzyme partially purified (Cohen et al., J. Gen. Virol. 66, 733 (1985))
Assay: biochemical
Assay type: biochemical
Text: b) Assay and Results for Exemplified Peptides

T1 sequence (P08543 whole entry): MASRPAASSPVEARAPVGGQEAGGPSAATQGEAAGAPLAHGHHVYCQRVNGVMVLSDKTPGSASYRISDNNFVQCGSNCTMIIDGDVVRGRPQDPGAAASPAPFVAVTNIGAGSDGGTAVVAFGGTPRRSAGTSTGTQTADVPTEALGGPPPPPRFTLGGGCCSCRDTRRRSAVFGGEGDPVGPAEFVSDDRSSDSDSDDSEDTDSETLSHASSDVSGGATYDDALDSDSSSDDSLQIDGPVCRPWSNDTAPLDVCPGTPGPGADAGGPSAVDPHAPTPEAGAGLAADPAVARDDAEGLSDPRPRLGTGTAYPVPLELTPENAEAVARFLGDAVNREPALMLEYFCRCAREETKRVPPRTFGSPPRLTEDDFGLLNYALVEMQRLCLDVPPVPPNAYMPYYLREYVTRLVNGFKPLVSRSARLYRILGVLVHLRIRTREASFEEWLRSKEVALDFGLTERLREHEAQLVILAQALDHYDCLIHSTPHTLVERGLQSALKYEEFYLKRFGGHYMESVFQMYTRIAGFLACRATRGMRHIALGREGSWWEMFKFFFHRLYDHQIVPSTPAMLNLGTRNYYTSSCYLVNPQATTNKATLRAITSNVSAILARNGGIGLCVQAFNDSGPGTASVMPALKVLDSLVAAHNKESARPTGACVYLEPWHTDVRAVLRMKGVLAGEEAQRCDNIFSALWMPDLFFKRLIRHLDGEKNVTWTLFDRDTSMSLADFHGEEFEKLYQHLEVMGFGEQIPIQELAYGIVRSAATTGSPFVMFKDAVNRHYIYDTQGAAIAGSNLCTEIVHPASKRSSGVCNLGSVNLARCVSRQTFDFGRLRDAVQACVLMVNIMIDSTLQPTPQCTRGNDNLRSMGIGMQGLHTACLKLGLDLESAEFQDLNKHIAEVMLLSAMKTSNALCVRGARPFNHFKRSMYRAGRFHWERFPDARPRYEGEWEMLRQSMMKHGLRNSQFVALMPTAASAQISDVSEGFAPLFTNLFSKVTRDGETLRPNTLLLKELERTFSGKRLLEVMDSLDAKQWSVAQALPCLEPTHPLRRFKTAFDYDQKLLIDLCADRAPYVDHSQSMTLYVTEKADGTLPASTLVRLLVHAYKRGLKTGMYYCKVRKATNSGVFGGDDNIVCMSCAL

## CC[C@H](C)[C@H](NC(=O)[C@H](C(C)C)N(C)C(=O)OC(C)(C)C)C(=O)N[C@@H](CC(=O)NCCc1ccccc1)C(=O)N[C@@H](CC(=O)O)C(=O)N[C@@H](CC(C)C)C(=O)O [Entry 24, Boc--N--Me--Val--Ile--Asp(NHCH2 CH2 Ph)--Asp--Leu--OH] (Boc-[NMeV]ID(NHPhenethyl)DL-OH)
Table 4, concentration producing 50% of the maximal inhibition of enzyme activity, mean of four assays, read-out: IC50
  IC50: 1600 nM

## CCCCCC[C@H](C)OC(=O)C[C@H](NC(=O)[C@@H](NC(=O)[C@H](C(C)C)N(C)C(=O)CCc1ccccc1)[C@@H](C)CC)C(=O)N[C@@H](CC(=O)O)C(=O)N[C@@H](CC(C)C)C(N)=O [Entry 31, PhCH2 CH2 CO--N--Me--Val--Ile--Asp 1(S)-methylheptyloxy!-Asp--Leu--NH2] (Hydrocinnamoyl-[NMeV]ID(O(2S-octyl))DL-NH2)
  IC50: 1900 nM

## CC[C@H](C)[C@H](NC(=O)[C@H](C(C)C)N(C)C(=O)CCc1ccccc1)C(=O)N[C@@H](CC(=O)N1CCCC1)C(=O)N[C@@H](CC(=O)O)C(=O)N[C@@H](C)CC(C)C [Entry 41, PhCH2 CH2 CO--N--Me--Val--Ile--Asp(pyrrolidino)-Asp--NHCH(CH3)CH2 CH(CH3)2] (Hydrocinnamoyl-[NMeV]ID(Pyrrolidide)D-X6)
  IC50: 2600 nM

## CCCCCCCCN(C)C(=O)C[C@H](NC(=O)[C@@H](NC(=O)[C@H](C(C)C)N(C)C(=O)CCc1ccccc1)[C@@H](C)CC)C(=O)N[C@@H](CC(=O)O)C(=O)N[C@@H](CC(C)C)C(=O)O [Entry 32, PhCH2 CH2 CO--N--Me--Val--Ile--Asp NMe(octyl)!-Asp--Leu--OH] (Hydrocinnamoyl-[NMeV]ID(X4)DL-OH)
  IC50: 260 nM

## CC(C)C[C@H](NC(=O)[C@@H](NC(=O)[C@H](CC(=O)N1CCCC1)NC(=O)[C@@H](NC(=O)[C@H](C(C)C)N(C)C(=O)CCc1ccccc1)C(C)(C)C)C1(C(=O)O)CCC1)C(=O)O [Entry 33, PhCH2 CH2 CO--N--Me--Val--Tbg--Asp(pyrrolidino)-Asp(cyBu)-Leu--OH] (Hydrocinnamoyl-[NMeV][Tle]D(Pyrrolidide)[Gly(1-COOH-cBu)]L-OH)
  IC50: 60 nM

## CC[C@H](C)[C@H](NC(=O)[C@H](C(C)C)N(C)C(=O)CCc1ccccc1)C(=O)N[C@@H](CC(=O)N1CCCC1)C(=O)N[C@@H](CC(=O)O)C(=O)NCCC(C)C [Entry 38, PhCH2 CH2 CO--N--Me--Val--Ile--Asp(pyrrolidino)-Asp--NHCH2 CH2 CH(CH3)2] (Hydrocinnamoyl-[NMeV]ID(Pyrrolidide)D-NHIsopentyl)
  IC50: 1300 nM

## CCCCCCCCCCCCOC(=O)C[C@H](NC(=O)[C@@H](NC(=O)[C@H](C(C)C)N(C)C(=O)CCc1ccccc1)[C@@H](C)CC)C(=O)N[C@@H](CC(=O)O)C(=O)N[C@@H](CC(C)C)C(=O)O [Entry 29, PhCH2 CH2 CO--N--Me--Val--Ile--Asp(dodecyloxy)-Asp--Leu--OH] (Hydrocinnamoyl-[NMeV]ID(X2)DL-OH)
  IC50: 4200 nM

## CCCCCC[C@H](C)OC(=O)C[C@H](NC(=O)[C@@H](NC(=O)[C@H](C(C)C)N(C)C(=O)CCc1ccccc1)[C@@H](C)CC)C(=O)N[C@@H](CC(=O)O)C(=O)N[C@@H](CC(C)C)C(=O)OC [Entry 37, PhCH2 CH2 CO--N--Me--Val--Ile--Asp 1(S)-methylheptyloxy!-Asp--Leu--OCH3] (Hydrocinnamoyl-[NMeV]ID(O(2S-octyl))DL-OMe)
  IC50: 2000 nM

## CC[C@H](C)[C@H](NC(=O)[C@H](C(C)C)N(C)C(=O)CCc1ccccc1)C(=O)N[C@@H](CC(=O)N1CCCC1)C(=O)N[C@@H](CC(=O)O)C(=S)N[C@@H](CC(C)C)C(=O)O [Entry 40, PhCH2 CH2 CO--N--Me--Val--Ile--Asp(pyrrolidino)-.PSI. CSNH!Asp--Leu--OH]
  IC50: 160 nM

## CCCCCC[C@H](C)OC(=O)C[C@H](NC(=O)[C@@H](NC(=O)[C@H](C(C)C)N(C)C(=O)CCC(C)C)[C@@H](C)CC)C(=O)N[C@@H](CC(=O)O)C(=O)N[C@@H](CC(C)C)C(=O)O [Entry 30, 4-Methylpentanoyl-N--Me--Val--Ile--Asp 1(S)-methylheptyloxy!-Asp--Leu--OH] ({Pentanoyl(4-Me)}-[NMeV]ID(O(2S-octyl))DL-OH)
  IC50: 1700 nM
